Assay results: patent publication US20100166726A1, “COMPOSITIONS FOR IMPROVING CELLULAR UPTAKE OF A CHEMOTHERAPEUTIC AGENT IN A CELL EXHIBITING MUCIN DEREGULATION” (NORTHEASTERN UNIVERSITY, priority 2007, published 2010)

What was measured:
[1] = tested on: Capan-1, HPAF-II, and U-87 MG cells; assay: Cell morphology by DIC microscopy after benzyl-α-GalNAc exposure; format: cell-based, human; settings: 72 hr exposure at maximum non-toxic concentration
Procedure: To observe the effects of benzyl-α-GalNAc exposure on cell morphology, differential interference contract (DIC) microscopy was employed. Sterile cover slips were placed in six-well plates (Corning, N.Y.). Capan-1, HPAF-II, and U-87 MG cells were next seeded at 1×10^4 per ml in the same 6-well plates.

HPAF-II cells [2] = assay: 5-FU cytotoxicity with or without benzyl-α-GalNAc pre-exposure, sulforhodamine B assay; format: cell-based, human
Procedure: The effects of increasing benzyl-α-GalNAc concentrations on cytotoxicity of 5-FU (108 μmol/ml) against HPAF-II cells was first tested. […] The growth inhibitory effect of 5-FU after 24 hr of exposure was determined using sulforhodamine B (Sigma-Aldrich, St. Louis, Mo.) assay the percent of viable cells was calculated as follows: […]

Capan-1 tumors [3] = assay: MUC1 carbohydrate staining of tumors after intratumoral benzyl-α-GalNAc; format: in vivo, SCID mice; settings: four intratumoral injections (10 mg/ml, 0.1 cc) at intervals of 48 hr
Procedure: (§1) All animal work was performed in the animal facility at Northeastern University, Boston, Mass. in accordance with the institutional guidelines. Female SCID (severe combined immunodeficient mice), 6 to 8 weeks old purchased from Massachusetts General Hospital, Boston, Mass. were used for our study since they have been used successfully for developing human xenografts of pancreatic tumors. To establish the tumors, 2.5×10^6 Capan-I cells in 0.1 ml of cell culture medium were injected into the subcutaneous dorsa of all mice. Mice were weighed daily using a digital weighing balance (AccuSeries®, Fisher Scientific, Arvada, Colo.) and tumor volumes were also measured every day using an electronic digital caliper (Control Company, Friendswood, Tex.). Tumor volumes were calculated using the formula a^2×b×0.52, where “a” is the longer diameter and “b” is the shorter diameter. […]
(§2) In order to test the in vivo effect of Benzyl-α-GalNAc in a pancreatic tumor model, Benzyl-α-GalNAc was administered locally into the tumor mass of mice via intratumoral injections (10 mg/ml, 0.1 cc). […] Following intratumoral injections, the sections of subcutaneous Capan-1 and HPAF-II tumors were analyzed for MUC1 carbohydrate staining (FIG. 7B).

HPAF-II tumors = assay: as above; format: in vivo, SCID mice; settings: four intratumoral injections (10 mg/ml, 0.1 cc) at intervals of 48 hr
Procedure: as §1, §2

HPAF-II cells [4] = assay: Anti-MUC1 (CD227) antibody association after benzyl-α-GalNAc exposure (microplate fluorescence, FACS); format: cell-based, human
Procedure: (§3) In order to determine whether the concentrations of benzyl-α-GalNAc employed are sufficient to inhibit MUC1 O-glycosylation, we observed the alterations in anti-MUC1 (CD227) association after exposure to the inhibitor. The antibody association studies were performed as follows. […] After each exposure time point the cells were washed with 1×PBS and 1 ml of fresh media was added to each well. The cells were then exposed to 4 μl/well of anti-MUC1 antibody.
(§4) Fluorescence-activated cell-sorting (FACS) analysis was then performed as follows. […] After 48 hr exposure to benzyl-α-GalNAc cells were washed with 1×PBS and 1 ml of fresh media was added to each well. The cells were then exposed to 4 μl/well of CD227 antibody. Following 24 hr incubation with the antibody, cells were washed with 1×PBS to remove any unassociated antibody and cells were detached using 0.5 ml/well trypsin. Cells were then washed with 1×PBS and antibody association was determined using FACS analysis.

Capan-1 cells [5] = assay: as above; format: cell-based, human
Procedure: as §3, §4

HPAF-II cells [6] = assay: Cellular toxicity of benzyl-α-GalNAc, sulforhodamine B assay; format: cell-based, human; settings: 72 hr exposure
Procedure: (§5) O-glycosylation is critical for mucin formation. […] These cellular toxicity studies were performed as follows.

Capan-1 cells [7] = assay: as above; format: cell-based, human; settings: 72 hr exposure
Procedure: as §5

HPAF-II cells [8] = assay: Cell viability and morphology after removal of benzyl-α-GalNAc; format: cell-based, human
Procedure: (§6) These experiments were conducted to determine whether the successful elimination of the glycosylated functional groups surrounding the MUC1 peptide core limit the capacity of cells to proliferate once benzyl-α-GalNAc has been removed. A significant change in cells' ability to multiply and divide due to exposure to benzyl-α-GalNAc would affect the measure of MUC1's role in our experiment. Capan-1 and HPAF-II cells were exposed to benzyl-α-GalNAc for 48 hr. Percent of cell viability was determined 24 hr, 48 hr, and 72 hr after removal of benzyl-α-GalNAc. […] Following 48 hr exposure to benzyl-α-GalNAc cells were washed with 1×PBS and then allowed to grow for an additional 24 hr, 48 hr, and 72 hr in fresh media.

Capan-1 cells [9] = assay: as above; format: cell-based, human
Procedure: as §6

Capan-1 tumors [10] = assay: Anti-tumoral activity in Capan-1 pancreatic tumor model (tumor volume, histochemical staining, neoplastic cell density); format: in vivo, SCID mice; settings: for histochemical staining of tumor sections, neoplastic cells: H&E stained sections; for tumor volume compared to control tumors (saline group): benzyl-α-GalNAc intratumoral days 4, 6, 8, 10, 5-FU intravenous, total 125 mg/kg; for Percent Tumor Area (neoplastic cell density as percent of total tumor area): bioquant imaging software, tumor sections at end of experiment
Procedure: All animal work was performed in the animal facility at Northeastern University, Boston, Mass. in accordance with the institutional guidelines. Female SCID (severe combined immunodeficient mice), 6 to 8 weeks old purchased from Massachusetts General Hospital, Boston, Mass. were used for our study since they have been used successfully for developing human xenografts of pancreatic tumors. To establish the tumors, 2.5×10^6 Capan-I cells in 0.1 ml of cell culture medium were injected into the subcutaneous dorsa of all mice. Mice were weighed daily using a digital weighing balance (AccuSeries®, Fisher Scientific, Arvada, Colo.) and tumor volumes were also measured every day using an electronic digital caliper (Control Company, Friendswood, Tex.). Tumor volumes were calculated using the formula a^2×b×0.52, where “a” is the longer diameter and “b” is the shorter diameter. Once the tumor volumes were approximately 50 mm^3-70 mm^3 the experimental groups received intratumoral injections of benzyl-α-GalNAc (0.1 ml injection; 10 mg/ml) whereas […] at intervals of 48 hr. When the tumor volumes were approximately 100 mm^3 5-FU was administered via the intravenous route. Animals in treatment groups received two injections (0.1 ml) of 5-FU at interval of 4 days whereas control mice received saline (0.1 ml). The total dose of 5-FU administered was 125 mg/kg. At the end of the experiment animals were sacrificed, tumor tissue was surgically removed and fixed in 10% formalin at 4° C. for histochemical staining.
For histochemical staining, paraffin-embedded tissue sections (5 μm) were stained with hematoxylin and eosin (H&E) to evaluate and compare the extent of tissue viability. The tumor sections were scanned and qualitative images captured using brightfield microscopy (Olympus BX61WI, NY). The number of tumor cells in each section was quantified using bioquant imaging software and expressed as percent of total tumor area. To quantify the total tumor area we first traced the outline of the entire tumor section in each field of view (FOV). The pixels within the traced area were then selected and the pixel count was determined by the software. A total of five FOV were analyzed to determine the total pixel count of the tumor area. Microscope stage encoders were used to ensure that no tumor area was counted more than once. Similarly the total pixel count of the neoplastic cells featured in blue in each FOV was determined. The total percent of neoplastic cell density was calculated as follows: […]
For these studies the pancreatic cell line, Capan-1 was used to used to establish a pancreatic tumor model. Capan-1 tumors were established in subcutaneous dorsa of female SCID mice (see, Example 7). […] 5-FU therapy began when the tumor size was approximately 100 mm^3.

U-87 MG cells [11] = assay: Anti-MUC1 (CD227) antibody association after benzyl-α-GalNAc exposure (FACS); format: cell-based, human; settings: 48 hr exposure
Procedure: as §4

U-87 MG cells [12] = settings: 72 hr exposure
Procedure: In order to determine the contribution of MUC1 expression in the delivery of drugs such as 5-FU to pancreatic tumors, the maximum non-toxic concentration of benzyl-α-GalNAc that could be used to inhibit O-glycosylation of MUC1 was determined from cellular toxicity studies. These cellular toxicity studies were performed as follows. Cells were seeded at 1×10^4 per ml in 48-well plates. Following a 24 hr incubation period at 37° C., cells were exposed to various concentrations of benzyl-α-GalNAc solution (Sigma-Aldrich, St. Louis, Mo.) prepared in media. After 72 hr of cell exposure to benzyl-α-GalNAc, the percent of cell viability was determined using sulforhodamine B assay (Kalra et al., Pharm. Res., 23(12):2809-2817 (2006); Skehan et al., J. Natl. Cancer Inst,. 82:1107-1112 (1990)) and calculated as follows:

U-87 MG cells [13] = assay: Intracellular uptake of 5-FU by immunofluorescence labeling; format: cell-based, human
Procedure: (§7) Capan-1 and U-87 MG cells were exposed to the maximum non-toxic concentration of benzyl-α-GalNAc for 48 hr followed by 1 hr and 4 hr exposure to 5-FU (50 μmol/ml). The intracellular levels of the drug were determined using a primary antibody against 5-FU followed by FITC-conjugated secondary antibody. Specifically, sterile cover slips were placed in 24-well plates (Corning, N.Y.). Cells were seeded at 2×10^4 per ml in the same 24-well plates. Following a 24 hr incubation period at 37° C. cells was exposed to the maximum non-toxic concentration of benzyl-α-GalNAc solution prepared in cell culture media, the control cells were incubated in growth media without the O-glycosylation inhibitor. Following an additional 48 hr of incubation, each row was washed with 1×PBS and treated with 5-FU prepared in cell growth medium. The intracellular uptake of 5-FU following 1 hr and 4 hr of cell exposure to drug was determined by immunofluorescence labeling. Briefly, the medium containing 5-FU was aspirated and cells were washed twice with 1×PBS. The cells were then fixed with cold methanol for 10 min at −20° C. followed by rinsing with cold acetone. The cells were next washed twice with 1×PBS followed by 30 min rehydration in 1×PBS. For immunolabeling, cells were exposed to 200 μl (1:1000 dilution; stock concentration: 1 mg/ml) of primary antibody against 5-FU (Lampire Biological Laboratories, Pipersville, Pa.) for 1 hr at room temperature. The unassociated primary antibody was removed by washing three times with 1×PBS and cells were then incubated at room temperature with 200 μl (1:1000 dilution; stock concentration: 1 mg/ml) of fluorescein isothiocyanate (FITC)-conjugated goat anti-mouse IgG secondary antibody (Lampire Biological Laboratories, Pipersville, Pa.). Following 1 hr incubation with the secondary antibody, cells were washed twice with 1×PBS to remove any unassociated secondary antibody and the fluorescence intensity was measured using a fluorescence microplate reader (Bio-Tek® Instruments Inc., VT) at excitation wavelength of 485 nm and emission wavelength of 528 nm. The intracellular uptake of 5-FU was observed under a fluorescence microscope. The coverslip from each well was mounted onto a glass microslide (Corning, N.Y.) with SlowFade® Gold antifade reagent (Invitrogen, Carlsbad, Calif.). The images were captured using a combination of fluorescence and DIC microscopic applications at 20× magnification (Olympus BX61WI-Melville, N.Y.).

HPAF-II cells [14] = assay: Neuraminidase toxicity and effect on 5-FU cytotoxicity, sulforhodamine B assay; format: cell-based, human
Procedure: The enzyme neuraminidase, which cleaves terminal sialic acid residues, was used in these studies (Varki et al., J. Biol. Chem., 258:12465-12471 [1983]). […] The removal of sialic acid residues from cell surface was confirmed by labeling cells with 5 μl/well FITC conjugated MAA lectin for 30 mins. The effects of neuraminidase on CD227 antibody association was determined by labeling cells with 5 μl/well CD227 antibody for 4 hr. […] The effects of neuraminidase on 5-FU cytotoxicity was determined by exposing cells to 0.05 U/ml neuraminidase for 1 hr followed by treatment with 5-FU for 24 hr. Percent cell viability was determined using sulforhodamine B assay.

Capan-1 cells [15] = assay: Intracellular uptake of 5-FU by immunofluorescence labeling
Procedure: as §7

U-87 MG cells [16] = assay: 5-FU cytotoxicity with or without benzyl-α-GalNAc pre-exposure, sulforhodamine B assay; format: cell-based, human
Capan-1 cells [17] = assay: as above; format: cell-based, human
[18] = 24 hr, 48 hr, or 72 hr exposure at maximum non-toxic concentration
[19] = 48 hr exposure then fresh media
[20] = 5-FU exposure 1 h, Benzyl-α-GalNAc + (48 hr pre-treatment)
[21] = 5-FU exposure 1 h, Benzyl-α-GalNAc −
[22] = 5-FU exposure 4 h, Benzyl-α-GalNAc + (48 hr pre-treatment)
[23] = 5-FU exposure 4 h, Benzyl-α-GalNAc −

Compound: CC(=O)N[C@H]1[C@@H](OCc2ccccc2)O[C@H](CO)[C@H](O)[C@@H]1O [benzyl-α-GalNAc, benzyl-2-acetamido-2-deoxy-α-D-galactopyranoside]
- morphological structures of cells compared to cells not exposed [1]: no visible difference
- benzyl-α-GalNAc concentration at which decrease of percent cell viability vs 5-FU alone was significant (HPAF-II cells [2]; 48 hr exposure followed by 5-FU (108 μmol/ml) 24 hr): ≥ 0.4 mg/mL
- staining for MUC1 O-glycosylation vs tumors not exposed (Capan-1 tumors [3]): Lower staining
- staining for MUC1 O-glycosylation vs tumors not exposed (HPAF-II tumors): Lower staining
- anti-MUC1 (CD227) antibody association, fluorescence intensity vs cells not exposed (HPAF-II cells [4]; [18]): significantly enhanced
- FACS analysis of CD227 association vs cells not exposed (HPAF-II cells [4]; 48 hr exposure): shift in fluorescence peaks
- anti-MUC1 (CD227) antibody association, fluorescence intensity vs cells not exposed (Capan-1 cells [5]; [18]): significantly enhanced
- FACS analysis of CD227 association vs cells not exposed (Capan-1 cells [5]; 48 hr exposure): shift in fluorescence peaks
- maximum non-toxic concentration (HPAF-II cells [6]): 0.8 mg/mL
- maximum non-toxic concentration (Capan-1 cells [7]): 0.4 mg/mL
- effect on growth post-removal of inhibitor vs untreated controls (HPAF-II cells [8]; 0.8 mg/ml for 48 hr, then 24 hr, 48 hr, 72 hr in fresh media): No significant effect
- morphology (DIC images) post-removal of inhibitor (HPAF-II cells [8]; [19]): no visible morphological changes
- effect on growth post-removal of inhibitor vs untreated controls (Capan-1 cells [9]; 0.4 mg/ml for 48 hr, then 24 hr, 48 hr, 72 hr in fresh media): No significant effect
- morphology (DIC images) post-removal of inhibitor (Capan-1 cells [9]; [19]): no visible morphological changes
- histochemical staining of tumor sections, neoplastic cells (Capan-1 tumors [10]): dense packing of neoplastic cells
- tumor volume compared to control tumors (saline group) (Capan-1 tumors [10]): No difference
- Percent Tumor Area (neoplastic cell density as percent of total tumor area) (Capan-1 tumors [10]): 28.3 ± 1.8%
- FACS analysis of CD227 association vs cells not exposed (U-87 MG cells [11]): no shift in peak
- tolerated concentration (U-87 MG cells [12]): > 0.8 mg/mL

Compound: O=c1[nH]cc(F)c(=O)[nH]1 [5-FU, 5-fluorouracil]
- percent viability (HPAF-II cells [2]; 5-FU (108 μmol/ml) alone, 24 hr): 77.1±2.5%
- percent viability (HPAF-II cells [2]; pretreated with benzyl-α-GalNAc 0.8 mg/ml for 48 hr, then 5-FU (108 μmol/ml) 24 hr): 63.4±8.6%
- Intracellular uptake of 5-Fluorouracil, fluorescence intensity (U-87 MG cells [13]; [20]): 2346.9 arbitrary units
- Intracellular uptake of 5-Fluorouracil, fluorescence intensity (U-87 MG cells [13]; [21]): 3757.0 arbitrary units
- Intracellular uptake of 5-Fluorouracil, fluorescence intensity (U-87 MG cells [13]; [22]): 2989.4 arbitrary units
- Intracellular uptake of 5-Fluorouracil, fluorescence intensity (U-87 MG cells [13]; [23]): 3704.9 arbitrary units
- staining patterns of 5-FU (imaging), pre-treated with benzyl-α-GalNAc (U-87 MG cells [13]; 1 hr or 4 hr of exposure to 5-FU (50 μmol/ml)): did not alter
- percent viability vs 5-FU alone (HPAF-II cells [14]): not significantly altered
- percent viability (HPAF-II cells [14]; human, 24 hr): 49%±4.6
- Intracellular uptake of 5-Fluorouracil, fluorescence intensity (Capan-1 cells [15]; [20]): 7271.4 arbitrary units
- Intracellular uptake of 5-Fluorouracil, fluorescence intensity (Capan-1 cells [15]; [21]): 1696.9 arbitrary units
- Intracellular uptake of 5-Fluorouracil, fluorescence intensity (Capan-1 cells [15]; [22]): 3933.3 arbitrary units
- Intracellular uptake of 5-Fluorouracil, fluorescence intensity (Capan-1 cells [15]; [23]): 4253.0 arbitrary units
- fluorescence staining of intracellular 5-FU (imaging), pre-treated with benzyl-α-GalNAc vs 5-FU alone (Capan-1 cells [15]; 1 hr of exposure to 5-FU (50 μmol/ml)): higher fluorescence staining
- fluorescence staining of intracellular 5-FU (imaging), pre-treated with benzyl-α-GalNAc vs controls (Capan-1 cells [15]; 4 hr of exposure to 5-FU (50 μmol/ml)): no difference
- histochemical staining of tumor sections, neoplastic cells (Capan-1 tumors [10]): fewer tumor cells
- tumor volume compared to control tumors (saline group) (Capan-1 tumors [10]): significantly lower
- Percent Tumor Area (neoplastic cell density as percent of total tumor area) (Capan-1 tumors [10]): 21.0 ± 1.4%
- percent cell viability (U-87 MG cells [16]; 5-FU alone): 37%
- percent cell viability (U-87 MG cells [16]; benzyl-α-GalNAc (0.8 mg/ml) prior to 5-FU): 37%
- percent viability (Capan-1 cells [17]; 5-FU (80 μmol/ml) alone): 65.9±2%
- percent viability (Capan-1 cells [17]; benzyl-α-GalNAc (0.4 mg/ml) followed by 5-FU (80 μmol/ml)): 53.6±3.6%
